According to patent EP4603546A1, “SOLID DISPERSION CONTAINING SUBSTANCE TO BE DISPERSED, PHARMACEUTICAL COMPOSITION CONTAINING SAME, AND PRODUCTION METHODS THEREFOR” (CHUGAI SEIYAKU KABUSHIKI KAISHA, priority 2022, dated 2024):
≈ marks a conversion by molar mass, not a printed value. Numbered stars: 1 amine (or outer) side, 2 acyl side, 3 side chain; on linkers, the order of the positions; unused ones are H or OH. Bridge positions count the residues as written; N and C are the ends. Square brackets hold non-standard residues; d marks the D form. Peptide text beside a SMILES is read from it. * marks the point of attachment. hPhe(3,5-F2-4-CF3) = N[C@@H](CCc1cc(F)c(C(F)(F)F)c(F)c1)C(=O)O; hPhe(3-Cl-4-CF3) = N[C@@H](CCc1ccc(C(F)(F)F)c(Cl)c1)C(=O)O; NMePhe(4-CF3) = CN[C@@H](Cc1ccc(C(F)(F)F)cc1)C(=O)O; NEtPhe(4-Me) = CCN[C@@H](Cc1ccc(C)cc1)C(=O)O; NMePhe(4-Me) = CN[C@@H](Cc1ccc(C)cc1)C(=O)O; NMedβ3hAla = C[C@H](CC(=O)[*:2])N(C)[*:1]; NMeGly(cPent) = CN[C@H](C(=O)O)C1CCCC1; Pro(4,4-F2) = O=C(O)[C@@H]1CC(F)(F)CN1; NMeGly(cBu) = CN[C@H](C(=O)O)C1CCC1; NMeCha = CN[C@@H](CC1CCCCC1)C(=O)O; Hyp = O=C(O)[C@@H]1C[C@@H](O)CN1; NMeChg = CN[C@H](C(=O)O)C1CCCCC1; NMeI = CC[C@H](C)[C@H](NC)C(=O)O; NMeD = CN[C@@H](CC(=O)O)C(=O)O; NMeL = CN[C@@H](CC(C)C)C(=O)O; NMeA = CN[C@@H](C)C(=O)O; Pyrrolidide = C1CCN(*)C1; Ac5c = NC1(C(=O)O)CCCC1; Aze = O=C(O)[C@@H]1CCN1; Sar = CNCC(=O)O

Test: physchem
Conditions: pH 6.5, aqueous buffer
Method: Solubility (unit: mg/mL) was calculated from the measured compound concentration. The HPLC conditions are as follows. Detector: ultraviolet absorption photometer (measurement wavelength: 230 nm) Column: stainless steel tube of 2.1 mm inner diameter, 5 cm long filled with 1.7 µm ethylene cross-linked hybrid particles for liquid chromatography Column temperature: constant temperature near 70°C Mobile phase A: water/trifluoroacetic acid mixed solution (2000/1) Mobile phase B: acetonitrile/trifluoroacetic acid mixed solution (2000/1) Liquid delivery of mobile phase: concentration gradient control by changing the mixing ratio of mobile phase A and mobile phase B as shown in Table 8 below [Table 8]

Q: Which solubility thermodynamic does the source give for CC[C@H](C)[C@@H]1NC(=O)[C@H](CC(C)C)N(C)C(=O)C[C@@H](C(=O)N2CCCC2)N(C)C(=O)[C@H]([C@@H](C)CC)N(C)C(=O)C2(CCCC2)NC(=O)[C@@H]2CCCN2C(=O)[C@H](CCc2ccc(C(F)(F)F)c(Cl)c2)NC(=O)CN(C)C(=O)[C@H](Cc2ccc(C)cc2)N(C)C(=O)[C@@H]2CCN2C(=O)[C@H](C)N(C)C1=O [Compound III] ([NMeL]I[NMeA][Aze][NMePhe(4-Me)][Sar][hPhe(3-Cl-4-CF3)]P[Ac5c][NMeI][NMeD]-Pyrrolidide; lactam N-11) here?
A: The solubility thermodynamic was 10 µg/mL (≈ 6.96 µM).

Q: For CCO[C@@H]1C[C@H]2C(=O)NC3(CCCC3)C(=O)N(C)[C@@H]([C@@H](C)CC)C(=O)N(C)[C@H](C)CC(=O)N(C)[C@@H](CC(C)C)C(=O)N[C@@H]([C@@H](C)CC)C(=O)N(C)[C@@H](C)C(=O)N3CC[C@H]3C(=O)N(C)[C@@H](Cc3ccc(C(F)(F)F)cc3)C(=O)N(C)CC(=O)N[C@@H](CCc3ccc(C(F)(F)F)c(Cl)c3)C(=O)N2C1 [Compound II] (cyclo([Ac5c][NMeI][NMedβ3hAla][NMeL]I[NMeA][Aze][NMePhe(4-CF3)][Sar][hPhe(3-Cl-4-CF3)][Hyp](Et))), which solubility thermodynamic is on record?
A: The solubility thermodynamic was 1 µg/mL (≈ 0.689 µM).

Q: With CC[C@H](C)[C@@H]1NC(=O)[C@H](CC(C)C)N(C)C(=O)C[C@@H](C(=O)N(C)C)N(C)C(=O)[C@H]([C@@H](C)CC)N(C)C(=O)C2(CCCC2)NC(=O)[C@@H]2CCCN2C(=O)[C@H](CCc2ccc(C(F)(F)F)c(Cl)c2)NC(=O)CN(C)C(=O)[C@H](Cc2ccc(C)cc2)N(C)C(=O)[C@@H]2CCN2C(=O)[C@H](C)N(C)C1=O [Compound IV] ([NMeL]I[NMeA][Aze][NMePhe(4-Me)][Sar][hPhe(3-Cl-4-CF3)]P[Ac5c][NMeI][NMeD]-NMe2; lactam N-11) as the compound, how does the solubility thermodynamic read?
A: Its solubility thermodynamic is 20 µg/mL (≈ 14.2 µM).

Q: With CC[C@H](C)[C@@H]1NC(=O)[C@H](CC(C)C)N(C)C(=O)C[C@@H](C(=O)N(C)C)N(C)C(=O)[C@H](C2CCCC2)N(C)C(=O)C2(CCCC2)NC(=O)[C@@H]2CCCN2C(=O)[C@H](CCc2cc(F)c(C(F)(F)F)c(F)c2)NC(=O)CN(C)C(=O)[C@H](Cc2ccc(C)cc2)N(CC)C(=O)[C@@H]2CCN2C(=O)[C@H](C)N(C)C1=O [Compound I] ([NMeL]I[NMeA][Aze][NEtPhe(4-Me)][Sar][hPhe(3,5-F2-4-CF3)]P[Ac5c][NMeGly(cPent)][NMeD]-NMe2; lactam N-11) as the compound, how does the solubility thermodynamic read?
A: Its solubility thermodynamic is less than 1 µg/mL.

Q: Which solubility thermodynamic does the source give for CC[C@H](C)[C@@H]1NC(=O)[C@H](C2CCC2)N(C)C(=O)C[C@@H](C(=O)N2CCCC2)N(C)C(=O)[C@H](C2CCCCC2)N(C)C(=O)C2(CCCC2)NC(=O)[C@@H]2CC(F)(F)CN2C(=O)[C@H](CCc2cc(F)c(C(F)(F)F)c(F)c2)NC(=O)CN(C)C(=O)[C@H](CC2CCCCC2)N(C)C(=O)CN(C)C(=O)CN(C)C1=O [Compound V] ([NMeGly(cBu)]I[Sar][Sar][NMeCha][Sar][hPhe(3,5-F2-4-CF3)][Pro(4,4-F2)][Ac5c][NMeChg][NMeD]-Pyrrolidide; lactam N-11) here?
A: Its solubility thermodynamic is less than 1 µg/mL.
